Assay results as given in patent US20260109694A1, “HETEROCYCLIC COMPOUNDS AND USES THEREOF” (Kumquat Biosciences Inc., priority 2023, published 2026).

How the values were obtained:
PTP1B = biological target: T1, PTP1B (Homo sapiens, UniProt P18031); assay: Phosphatase activity assay (DiFMUP substrate); type: biochemical; conditions: value bin printed in column head
T1 sequence (P18031 1-435): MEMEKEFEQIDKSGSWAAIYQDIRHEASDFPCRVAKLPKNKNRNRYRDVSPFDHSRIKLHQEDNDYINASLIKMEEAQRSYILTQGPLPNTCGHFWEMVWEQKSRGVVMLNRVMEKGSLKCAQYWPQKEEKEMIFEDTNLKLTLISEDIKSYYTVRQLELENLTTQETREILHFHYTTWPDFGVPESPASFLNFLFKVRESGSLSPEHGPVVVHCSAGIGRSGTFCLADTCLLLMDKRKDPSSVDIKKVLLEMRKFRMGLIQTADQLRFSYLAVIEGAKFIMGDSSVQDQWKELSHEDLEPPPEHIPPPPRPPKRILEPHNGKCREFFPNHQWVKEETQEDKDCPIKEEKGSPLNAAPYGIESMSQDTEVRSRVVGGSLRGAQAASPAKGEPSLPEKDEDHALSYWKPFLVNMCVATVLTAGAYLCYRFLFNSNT
Summary of the method: (§1)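 Each enzyme (PTPN2 at 0.025 ng/ul) was premixed ~2 min with a 10-point inhibitor series in 50 mM HEPES pH 7.5, 150 mM NaCl, 0.5 mM EDTA, 1 mM DTT, 0.001% Tween-20 at room temperature. DiFMUP was added at each enzyme's Km (~45 μM for PTPN2). DiFMU fluorescence was followed 15–30 min, and IC50 came from 4-parameter fits of initial rates.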

PTPN2 = biological target: T2, PTPN2 (Homo sapiens, UniProt P17706); assay: Phosphatase activity assay (DiFMUP substrate); type: biochemical; conditions: value bin printed in column head
T2 sequence (P17706 1-415): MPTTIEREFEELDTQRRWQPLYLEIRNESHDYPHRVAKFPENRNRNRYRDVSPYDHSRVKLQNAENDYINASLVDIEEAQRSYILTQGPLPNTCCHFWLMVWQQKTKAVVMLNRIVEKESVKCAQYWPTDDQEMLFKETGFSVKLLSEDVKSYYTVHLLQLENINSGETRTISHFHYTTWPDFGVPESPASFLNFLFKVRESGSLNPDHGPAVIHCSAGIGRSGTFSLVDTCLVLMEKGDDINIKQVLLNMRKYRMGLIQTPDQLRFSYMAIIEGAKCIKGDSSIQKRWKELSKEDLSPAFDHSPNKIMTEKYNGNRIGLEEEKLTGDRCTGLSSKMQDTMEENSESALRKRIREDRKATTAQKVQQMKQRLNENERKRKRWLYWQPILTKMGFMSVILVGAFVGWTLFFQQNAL
Summary of the method: as §1

Row | SMILES | IC50 (PTP1B) | IC50 (PTPN2)
1 | CC1=C(c2ccc(O)c(N3CC(=O)NS3(=O)=O)c2F)CNC1C (stereo not shown) [Compound 118, 5-(3-(4,5-dimethyl-2,5-dihydro-1H-pyrrol-3-yl)-2-fluoro-6-hydroxyphenyl)-1,2,5-thiadiazolidin-3-one 1,1-dioxide] | > 1 µM | > 1 µM
2 | O=C1CN(c2c(O)ccc(CC3CCNCC3)c2F)S(=O)(=O)N1 [Compound 127, 5-(2-fluoro-6-hydroxy-3-(piperidin-4-ylmethyl)phenyl)-1,2,5-thiadiazolidin-3-one 1,1-dioxide] | ≤ 1 µM | ≤ 1 µM
3 | O=C1CN(c2c(O)ccc(C3=CC(C4CCC4)NC3)c2F)S(=O)(=O)N1 (stereo not shown) [Compound 125, 5-(3-(5-cyclobutyl-2,5-dihydro-1H-pyrrol-3-yl)-2-fluoro-6-hydroxyphenyl)-1,2,5-thiadiazolidin-3-one 1,1-dioxide] | ≤ 1 µM | ≤ 1 µM
4 | O=C1CN(c2c(O)cc(C3=CCCNC3)cc2F)S(=O)(=O)N1 [Compound 132, 5-(2-fluoro-6-hydroxy-4-(1,2,5,6-tetrahydropyridin-3-yl)phenyl)-1,2,5-thiadiazolidin-3-one 1,1-dioxide] | ≤ 1 µM | ≤ 1 µM
5 | O=C1CN(c2c(O)ccc(C3=C[C@H](CCC4CC4)NC3)c2F)S(=O)(=O)N1 [Compound 130, (S)-5-(3-(5-(2-cyclopropylethyl)-2,5-dihydro-1H-pyrrol-3-yl)-2-fluoro-6-hydroxyphenyl)-1,2,5-thiadiazolidin-3-one 1,1-dioxide] | ≤ 1 µM | ≤ 1 µM
6 | CC(=O)OC(C)OC(=O)N1CC(c2ccc(O)c(N3CC(=O)NS3(=O)=O)c2F)=C[C@H]1CCC1CCC1 (stereo partly drawn) [Compound 164, 1-acetoxyethyl (2R)-2-(2-cyclobutylethyl)-4-(3-(1,1-dioxido-4-oxo-1,2,5-thiadiazolidin-2-yl)-2-fluoro-4-hydroxyphenyl)-2,5-dihydro-1H-pyrrole-1-carboxylate] | ≤ 1 µM | ≤ 1 µM
7 | CC(OC(=O)[C@H](N)C(C)C)OC(=O)N1CC(c2ccc(O)c(N3CC(=O)NS3(=O)=O)c2F)=C[C@H]1CCC1CCC1 (stereo partly drawn) [Compound 147, 1-((D-valyl)oxy)ethyl (2R)-2-(2-cyclobutylethyl)-4-(3-(1,1-dioxido-4-oxo-1,2,5-thiadiazolidin-2-yl)-2-fluoro-4-hydroxyphenyl)-2,5-dihydro-1H-pyrrole-1-carboxylate] | ≤ 1 µM | ≤ 1 µM
8 | CC(C)CC[C@H]1C=C(c2ccc(O)c(N3CC(=O)NS3(=O)=O)c2F)CN1C(=O)O[C@@H](C)OC(=O)C(C)C [Compound 154, (S)-1-(isobutyryloxy)ethyl (S)-4-(3-(1,1-dioxido-4-oxo-1,2,5-thiadiazolidin-2-yl)-2-fluoro-4-hydroxyphenyl)-2-isopentyl-2,5-dihydro-1H-pyrrole-1-carboxylate] | ≤ 1 µM | ≤ 1 µM
9 | CC1(C2C=C(c3ccc(O)c(N4CC(=O)NS4(=O)=O)c3F)CN2)CC1 (stereo not shown) [Compound 108, 5-(2-fluoro-6-hydroxy-3-(5-(1-methylcyclopropyl)-2,5-dihydro-1H-pyrrol-3-yl)phenyl)-1,2,5-thiadiazolidin-3-one 1,1-dioxide] | > 1 µM | ≤ 1 µM
10 | CC(=O)OC(OC(=O)N1CC(c2ccc(O)c(N3CC(=O)NS3(=O)=O)c2F)=C[C@H]1CCC1CCC1)C(C)C (stereo partly drawn) [Compound 157, 1-acetoxy-2-methylpropyl (2R)-2-(2-cyclobutylethyl)-4-(3-(1,1-dioxido-4-oxo-1,2,5-thiadiazolidin-2-yl)-2-fluoro-4-hydroxyphenyl)-2,5-dihydro-1H-pyrrole-1-carboxylate] | ≤ 1 µM | ≤ 1 µM
11 | N#CCCCC1C=C(c2ccc(O)c(N3CC(=O)NS3(=O)=O)c2F)CN1 (stereo not shown) [Compound 119, 4-(4-(3-(1,1-dioxido-4-oxo-1,2,5-thiadiazolidin-2-yl)-2-fluoro-4-hydroxyphenyl)-2,5-dihydro-1H-pyrrol-2-yl)butanenitrile] | ≤ 1 µM | ≤ 1 µM
